Measurements as given in patent US5594019A, “6-heterocyclic-4-amino-1,3,4,5-tetrahydrobenz[CD]indoles” (Eli Lilly and Company, priority 1994, dated 1997).
Read-outs that look alike come from different tables or passages of the source.

What was measured:
[1] = target: T1, 5-HT1A receptor (Rattus norvegicus, UniProt P19327); assay: In vitro binding at the 5-HT1A receptor, inhibition of [3H]8-OH-DPAT binding to hippocampal membranes; design: species or system male Sprague-Dawley rats; conditions: [3H]8-OH-DPAT (1.0 nM), 10 minutes at 37° C., pH 7.4
T1 construct: the brains were rapidly chilled and dissected to obtain the hippocampi; from tissue; host or cells: hippocampus of male Sprague-Dawley rats (membranes)
T1 sequence (P19327 1-422): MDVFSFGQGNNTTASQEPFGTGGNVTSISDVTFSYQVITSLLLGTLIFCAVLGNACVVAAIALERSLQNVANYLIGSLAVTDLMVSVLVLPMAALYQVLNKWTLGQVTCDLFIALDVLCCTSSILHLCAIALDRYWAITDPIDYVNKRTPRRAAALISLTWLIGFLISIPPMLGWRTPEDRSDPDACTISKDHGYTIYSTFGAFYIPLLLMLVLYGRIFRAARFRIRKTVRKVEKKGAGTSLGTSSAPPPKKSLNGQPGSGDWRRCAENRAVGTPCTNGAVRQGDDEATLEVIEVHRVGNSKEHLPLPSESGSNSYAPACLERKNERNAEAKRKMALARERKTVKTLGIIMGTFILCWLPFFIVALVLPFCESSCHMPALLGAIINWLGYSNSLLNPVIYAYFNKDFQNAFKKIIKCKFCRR
Description: The affinities of certain of the compounds of Formula 1 at the central 5-HT1A receptors were determined using a modification of the binding assay described by Taylor, et al., J. Pharmacol. Exp. Ther., 236, 118-125 (1986). Membranes for the binding assay were prepared from male Sprague-Dawley rats (150-250 g). The animals were killed by decapitation, and the brains were rapidly chilled and dissected to obtain the hippocampi. Membranes from the hippocampi were either prepared that day, or the hippocampi were stored frozen (-70° C.) until the day of preparation. The membranes were prepared by homogenizing the tissue in 40 volumes of ice-cold Tris-HCl buffer (50 mM, pH 7.4 at 22° C.) using a Techmar Tissumizer (setting 65 for 15 seconds), and the homogenate was centrifuged at 39800xg for 10 minutes. The resulting pellet was then resuspended in the same buffer, and the centrifugation and resuspension process was repeated three additional times to wash the membranes. Between the second and third washes the resuspended membranes were incubated for 10 minutes at 37° C. to facilitate the removal of endogenous ligands. The final pellet was resuspended in 67 mM Tris-HCl, pH 7.4, to a concentration of 2 mg of tissue original wet weight/200 μl. This homogenate was stored frozen (-70° C.) until the day of the binding assay. […] The assay tubes were incubated for 10 minutes at 37° C., and the contents were then rapidly filtered through GF/B filters (pretreated with 0.5% polyethylenimine), tollowed by four 1 ml washes with ice-cold buffer. The radioactivity trapped by the filters was quantitated by liquid scintillation spectometry, and specific [^3 H]8-OH-DPAT binding to the 5-HT1A sites was defined as the difference between [^3 H]8-OH-DPAT bound in the presence and absence of 10 μM 5-HT.
In Table 1, the first column provides the example number of the compound evaluated while the second column provides the amount of test compound (expressed in nanomolar concentration) required to inhibit the binding of [^3 H]8-OH-DPAT by 50% (indicated as IC50).

[2] = target: T2, 5-HT1D receptor (Bos taurus, UniProt F1MGM3); assay: In vitro binding activity at the 5-HT1D receptor, inhibition of [3H]5-HT binding to caudate nuclei membranes; conditions: [3H]5-HT (1.7-1.9 nM), bovine caudate membranes, 8-OH-DPAT and mesulergine 100 nM masking, 10 minutes at 37° C., pH 7.4
T2 construct: Bovine brains were obtained and the caudate nuclei were dissected out; from tissue; host or cells: bovine caudate nuclei (membranes)
Description: The affinities of certin of the compounds of Formula 1 at the central 5-HT1D binding sites were determined using a modification of the binding assay described by Heuring and Peroutka, J. Neurosci., 7, 894 (1987). Bovine brains were obtained and the caudate nuclei were dissected out and frozen at -70° C. until the time that the membranes were prepared for the binding assays. At that time the tissues were homogenized in 40 volumes of ice-cold Tris-HCl buffer (50 mM, pH 7.4 at 22° C.) with a Techmar Tissumizer (setting 65 for 15 seconds), and the homogenate was centrifuged at 39,800xg for 10 minutes. The resulting pellet was then resuspended in the same buffer, and the centrifugation and resuspension process was repeated three additional times to wash the membranes. Between the second and third washes the resuspended membranes were incubated for 10 minutes at 37° C. to facilitate the removal of endogenous 5-HT. The final pellet was resuspended in Tris buffer to a concentration of 25 mg of original tissue wet weight/ml for use in the binding assay. […] The assay tubes were incubated for 10 minutes at 37° C., and the contents were then rapidly filtered through GF/B filters (pretreated with 0.5% polyethylenimine), followed by four 1 ml washes with ice-cold buffer. The radioactivity trapped by the filters was quantitated by liquid scintillation spectrometry, and specific [^3 H]5-HT binding to the 5-HT1D sites was defined as the difference between [^3 H]5-HT bound in the presence and absence of […] 5-HT.
In Table 2, the first column provides the example number of the compound evaluated while the second column provides the amount of test compound (expressed in nanomolar concentration) required to inhibit the binding of [^3 H]5-HT by 50% (indicated as IC50).

[3] = tested on: serotonin metabolite 5-hydroxyindole acetic acid (5HIAA); assay: Effect on serotonin turnover in vivo, decrease of 5HIAA concentration in whole brain; design: species or system Male albino rats; conditions: Rattus norvegicus, 1 h, rats, whole brain 5HIAA, one hour after dosing (generally a 15-20% decrease)
Description: In another experiment certain compounds of Formula 1 were evaluated to determine ability to affect serotonin turnover in vivo. As a measure of such affect on serotonin turnover, the decrease of the serotonin metabolite 5-hydroxyindole acetic acid (5HIAA) was measured. The following protocol was employed.
Male albino rats were injected either subcutaneously or orally with an aqueous solution of the compound tested. The pH of the solution was adjusted as necessary to solubilize the compound. A control of the solution without the test compound was similarly administered to a control animal. The rats were decapitated one hour later. The whole brain was then removed and frozen on dry ice for storage prior to analysis. 5-Hydroxyindole acetic acid (5HIAA) concentration in whole brain was measured by liquid chromatography with electrochemical detection as reported by Fuller and Perry, "Effects of Buspirone and its Metabolite, 1-(2-pyrimidinyi)piperazine, on Brain Monoamines and Their Metabolites in Rats", J. Pharmacol. Ext. Ther., 248, p. 50-56 (1989), incorporated herein by reference.
In Table III, Column 1 provides the Example No. of the compound tested while Column 2 provides the minimum effective dose (in mg/kg) required to produce a statistically significant decrease in 5HIAA concentration relative to control (generally a 15-20% decrease) for both oral and subcutaneous methods of administration.

[4] = po, p.o., read-out: Minimum Effective Dose (mg/kg) p.o., for a statistically significant decrease in 5HIAA concentration relative to control
[5] = sc, s.c., read-out: Minimum Effective Dose (mg/kg) s.c., for a statistically significant decrease in 5HIAA concentration relative to control

T2 sequence (F1MGM3 1-403): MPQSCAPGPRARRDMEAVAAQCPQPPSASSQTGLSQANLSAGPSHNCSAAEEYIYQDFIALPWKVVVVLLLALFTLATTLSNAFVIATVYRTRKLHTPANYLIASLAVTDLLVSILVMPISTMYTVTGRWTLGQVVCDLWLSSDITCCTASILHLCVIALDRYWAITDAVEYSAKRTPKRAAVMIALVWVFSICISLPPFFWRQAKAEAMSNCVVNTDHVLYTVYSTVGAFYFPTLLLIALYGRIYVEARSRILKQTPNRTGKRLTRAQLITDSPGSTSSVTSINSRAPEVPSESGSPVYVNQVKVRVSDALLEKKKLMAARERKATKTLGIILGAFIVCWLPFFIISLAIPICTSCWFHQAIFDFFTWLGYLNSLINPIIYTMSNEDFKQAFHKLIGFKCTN

Compound	IC50 [1] [nM]	IC50 [2] [nM]	minimal effective dose [3, 4] [mg/kg]	minimal effective dose [3, 5] [mg/kg]
CCCN(CCC)[C@H]1Cc2c[nH]c3ccc(-c4nnc(-c5ccccc5)o4)c(c23)C1 [Example 35, (-)(4R)-6-(5-phenyl-1,3,4-oxadiazol-2-yl)-4-(di-n-propylamino)-1,3,4,5-tetrahydrobenz[cd]indole]	19			> 1
CCCN(CCC)[C@H]1Cc2c[nH]c3ccc(-c4nc(-c5ccccc5)no4)c(c23)C1 [Example 30, (-)(4R)-6-(3-phenyl-1,2,4-oxadiazol-5-yl)-4-(di-n-propylamino)-1,3,4,5-tetrahydrobenz-[cd]indole]	7.1			
CCCN(CCC)[C@H]1Cc2c[nH]c3ccc(-c4ccno4)c(c23)C1 [Example 26, (-)(4R)-6-(5-isoxazolyl)-4-(di-n-propylamino)-1,3,4,5-tetrahydrobenz[cd]indole]	0.1	46.4		
CCCN(CCC)[C@@H]1Cc2c[nH]c3ccc(-c4ccon4)c(c23)C1 [Example 24, (+)(4S)-6-(3-isoxazoly)-4-(di-n-propylamino)-1,3,4,5-tetrahydrobenz[cd]indole]	0.61	18.6		

Now from value to compound, other results behind:

IC50 [1] [nM]	IC50 [2] [nM]	Compound	minimal effective dose [3, 4] [mg/kg]	minimal effective dose [3, 5] [mg/kg]
0.87	29.4	CCCN(CCC)[C@H]1Cc2c[nH]c3ccc(-c4cccnc4)c(c23)C1 [Example 33, (-)(4R)-6-(3-pyridyl)-4-(di-n-propylamino)-1,3,4,5-tetrahydrobenz[cd]indol]	> 10	0.3
0.53	74.4	CCCN(CCC)[C@H]1Cc2c[nH]c3ccc(-c4cnco4)c(c23)C1 [Example 32, (-)(4R)-6-(5-oxazolyl)-4-(di-n-propylamino)-1,3,4,5-tetrahydrobenz[cd]indole]		
0.75	577	CCCN(CCC)[C@H]1Cc2c[nH]c3ccc(-c4nnco4)c(c23)C1 [Example 34, (4R)-6-[2-(1,3,4-oxadiazolyl)]-4-(di-n-propylamino)-1,3,4,5-tetrahydrobenz[cd]indole]	10	0.1
2.77	280	CCCN(CCC)[C@H]1Cc2c[nH]c3ccc(-c4ncco4)c(c23)C1 [Example 31, (-)(4R)-6-(2-oxazolyl)-4-(di-n-propylamino)-1,3,4,5-tetrahydrobenz[cd]indole]	1	1
